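Assay format: 96-well plates, 48-hour exposure. GI50 = concentration required for 50% inhibition of growth. TGI marks complete inhibition of growth.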

Common to all, as to test: NCI anticancer screen, dose series, 48 h
Experiment [1] has as its system PC-3 prostate.
In experiment [2] the test system is 786-0 renal.
In experiment [3] the test system is RXF 393 renal.
Experiment [4] relates to HCT-15 colon.
In experiment [5] the test system is COLO 205 colon.
Experiment [6] concerns BT-549 breast.
The test system of experiment [7] is KM12 colon.
Experiment [8] has as its system SW-620 colon.
In experiment [9] the test system is CCRF-CEM leukemia.
Experiment [10] has as its system HL-60(TB) leukemia.

As to `CN(C)c1ccc(N=C2C=CC(=[N+](C)C)C=C2)cc1`, the GI50 in experiment [1] was 4.89 µM; in experiment [2], 30 µM; in experiment [3], 23.4 µM; in [4], 23.5 µM; in experiment [5], 4.2 µM; in experiment [6], 4.15 µM. For the same compound, the GI50 was 3.91 µM in [7] and 6.6 µM in [8]. For the same compound, the TGI in [1] was 22.7 µM; in [2], more than 100 µM; in experiment [3] it was more than 100 µM; in experiment [4], more than 100 µM; in [5] it was 16.2 µM; in [6] it was 58.4 µM. In addition, the values for the TGI in experiment [7] and in experiment [8] were 15 µM and 26.2 µM, respectively.
Regarding `O=C(O)c1cc(/C=C/c2cc(O)ccc2O)ccc1O`, the TGI in experiment [1], in experiment [2], in experiment [9], in experiment [4], in experiment [10] and in experiment [6] was more than 10 µM each time. In experiment [8], this compound gave a TGI of more than 10 µM.
In the case of `CC(=O)c1cc(C(=O)c2ccc3c(c2)Sc2ccccc2N3)c2c(C)cc(C)cn12`, the GI50 in [1] is 0.362 µM; in experiment [2], 0.465 µM; in experiment [9] it was 0.277 µM; in experiment [3], 0.162 µM; in [4], 0.344 µM; in experiment [5] it was 0.222 µM. Further, the GI50 in experiment [6] was 0.368 µM; in experiment [7] it was 0.353 µM; in [8] it was 0.372 µM. The TGI in [1] is more than 100 µM; in experiment [2], more than 21.5 µM; in experiment [9], more than 100 µM; in experiment [3], 0.699 µM; in experiment [4], more than 100 µM; in experiment [5] it was 0.535 µM. In addition, the figures for the TGI in experiment [6], in experiment [7] and in experiment [8] were more than 21.3 µM, more than 46.7 µM and more than 100 µM, respectively.
Regarding `CCOC(=O)c1c(C)n2c(=O)cc(C)c3c(O)c(O)cc1c32`, the GI50 in experiment [1] is 4.23 µM; in [2], 8.83 µM; in experiment [9], 0.746 µM; in experiment [4], 2.48 µM; in experiment [5], 13.1 µM; in [10] it was 2.92 µM. Further, the GI50 was 15.9 µM in experiment [6], 4.13 µM in experiment [7] and 4.3 µM in experiment [8]. Further, the TGI in [1] was more than 100 µM; in experiment [2], more than 100 µM; in experiment [9], 6.05 µM; in experiment [4] it was 51.1 µM; in experiment [5] it was more than 100 µM; in experiment [10], 17.2 µM. In addition, the TGI in experiment [6] is 79.7 µM; in [7], 42.2 µM; in experiment [8], more than 100 µM.
As for `N/N=C(\C(=O)Nc1ccc(Cl)cc1Cl)C(c1cnc2ccccc2n1)[N+](=O)[O-]` (centres undefined), the TGI in experiment [1], in experiment [2], in [9], in [3], in experiment [4] and in [10] was more than 100 µM in each case. The TGI in experiment [6], in experiment [7] and in experiment [8] was more than 100 µM each time.
In the case of `CNC(=O)OCc1c2ccncc2c(C)c2c1[nH]c1ccccc12`, the TGI in [1] worked out at 20.7 µM; in [2], 14.2 µM; in experiment [3], 0.17 µM; in [4], 1.76 µM; in experiment [5], 1.82 µM; in [10] it was 0.92 µM. The TGI in [6] came out at 1.63 µM; in experiment [7], 5.19 µM; in experiment [8], 2.38 µM.
In the case of `C=C(C)[C@@H]1CC[C@]2(C(=O)O)CC[C@]3(C)[C@H](CC[C@@H]4[C@@]5(C)C[C@@H](CC#Cc6ccc(C(F)(F)F)cc6)[C@H](O)C(C)(C)[C@@H]5CC[C@]43C)[C@@H]12`, the GI50 in [2] was 3.2 µM; in experiment [9], 2.98 µM; in experiment [3], 2.39 µM; in experiment [4], 3.95 µM; in [5] it was 3.72 µM; in experiment [10], 6.2 µM. For the same compound, the GI50 is 10.9 µM in experiment [6] and 2.78 µM in [7]. Moreover, the TGI in experiment [2] was 21.9 µM; in experiment [9], more than 100 µM; in experiment [3] it was 5.49 µM; in [4], more than 100 µM; in [5], more than 100 µM; in experiment [10], more than 100 µM. Besides, the TGI in [6] and in experiment [7] was more than 100 µM throughout.
For the compound `COc1ccc(C(=O)c2cc(OC)c(OC)c(OC)c2)cc1/C=C/C(=O)c1ccc(OC)c(OC)c1`, the GI50 in [1] is 5.9 µM; in [2] it was 4.71 µM; in [9], 0.465 µM; in experiment [3], more than 100 µM; in [4] it was 0.428 µM; in experiment [5], 3.07 µM. In addition, the GI50 was 1.42 µM in [7] and 0.321 µM in experiment [8]. The TGI is more than 100 µM in [1]; more than 100 µM in experiment [2]; 13.3 µM in [9]; more than 100 µM in [3]; more than 100 µM in experiment [4]; more than 100 µM in [5]. The TGI in experiment [7] and in experiment [8] was more than 100 µM each time.
Turning to `Cc1ccc(S(=O)(=O)N2CCSCCN(S(=O)(=O)c3ccc(C)cc3)CCN(S(=O)(=O)c3ccc(C)cc3)CC2)cc1`, the TGI in [2] was 73.9 µM; in experiment [9], more than 100 µM; in experiment [3] it was more than 100 µM; in experiment [5], more than 100 µM; in experiment [10] it was more than 100 µM; in experiment [6] it was 70.5 µM. In experiment [8], this compound returned a TGI of more than 100 µM.
For `CC1COc2c(N3CCN(C)CC3)c(F)cc3c(=O)c(C(=O)O)cn1c23` (centres undefined), the GI50 in [1], in [2], in experiment [9], in experiment [3], in experiment [4] and in [5] was more than 100 µM each time. Besides, the GI50 in [6], in experiment [7] and in experiment [8] was more than 100 µM each time. For the same compound, the TGI in experiment [1], in [2], in experiment [9], in experiment [3], in [4] and in [5] was more than 100 µM in each case. In addition, the TGI in experiment [6], in [7] and in experiment [8] was more than 100 µM in each case.
